Results: PubChem BioAssay AID248 (DTP/NCI, 2004)
“And” between values parts separate entries of the source, which are not always exact repeats. Equal entries are not always repeated. Inconclusive results and toxic doses are left out. No stated cut-off is given here; in the data, active means T/C of 150% or more; inactive means T/C below 125%.

Test system: L1210 leukemia ip in BDF1 mice, survival T/C
Experiment: NCI In Vivo Anticancer Drug Screen. Data for tumor model L1210 Leukemia (intraperitoneal) in B6D2F1 (BDF1) mice
Conditions: endpoint: mean survival time, higher = longer survival
Summary of the method: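 Tumor was transplanted into mice, which were then dosed with test compound or vehicle alone. Survival was recorded for each group, and the treated figure was expressed relative to the control figure.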

[1] = dose: 200.0 mg/kg/injection, schedule: Q04DX003 (ip), vehicle: saline with Tween-80
[2] = dose: 400.0 mg/kg/injection, schedule: Q04DX003 (ip), vehicle: saline with Tween-80
[3] = dose: 50.0 mg/kg/injection, schedule: Q01DX009 (ip), vehicle: Klucel (hydroxypropylcellulose) (HPC)
[4] = dose: 100.0 mg/kg/injection, schedule: Q01DX009 (ip), vehicle: Klucel (hydroxypropylcellulose) (HPC)
[5] = dose: 200.0 mg/kg/injection, schedule: Q01DX009 (ip), vehicle: Klucel (hydroxypropylcellulose) (HPC)
[6] = dose: 100.0 mg/kg/injection, schedule: Q01DX001 (ip), vehicle: saline
[7] = dose: 200.0 mg/kg/injection, schedule: Q01DX001 (ip), vehicle: saline
[8] = dose: 400.0 mg/kg/injection, schedule: Q01DX001 (ip), vehicle: saline
[9] = dose: 100.0 mg/kg/injection, schedule: Q01DX009 (ip), vehicle: saline
[10] = dose: 200.0 mg/kg/injection, schedule: Q01DX009 (ip), vehicle: saline
[11] = dose: 400.0 mg/kg/injection, schedule: Q01DX009 (ip), vehicle: saline
[12] = dose: 100.0 mg/kg/injection, schedule: Q04DX003 (ip), vehicle: saline with Tween-80
[13] = dose: 400.0 mg/kg/injection, schedule: Q01DX009 (ip), vehicle: Klucel (hydroxypropylcellulose) (HPC)

Measured: T/C

COc1ccc(N=Cc2cccc(OC)c2O)cc1.COc1ccc(N=Cc2cccc(OC)c2O)cc1.[Co]
inactive: dose: 50.0 mg/kg/injection, schedule: Q04DX003 (ip), vehicle: saline with Tween-80 92 % of control | [1] 92 % of control | [2] 95 % of control

OCc1cccc2c1CCC2
inactive: dose: 12.5 mg/kg/injection, schedule: Q01DX001 (ip), vehicle: Klucel (hydroxypropylcellulose) (HPC) 100 % of control | dose: 12.5 mg/kg/injection, schedule: Q01DX009 (ip), vehicle: Klucel (hydroxypropylcellulose) (HPC) 104 % of control | dose: 25.0 mg/kg/injection, schedule: Q01DX001 (ip), vehicle: Klucel (hydroxypropylcellulose) (HPC) 100 % of control | dose: 25.0 mg/kg/injection, schedule: Q01DX009 (ip), vehicle: Klucel (hydroxypropylcellulose) (HPC) 96 % of control | dose: 50.0 mg/kg/injection, schedule: Q01DX001 (ip), vehicle: Klucel (hydroxypropylcellulose) (HPC) 102 % of control | [3] 94 % of control

OCCCCN=Cc1ccccc1O.OCCCCN=Cc1ccccc1O.[Cu]
inactive: dose: 9.5 mg/kg/injection, schedule: Q01DX001 (ip), vehicle: other 102 % of control | dose: 19.0 mg/kg/injection, schedule: Q01DX001 (ip), vehicle: other 108 % of control | dose: 38.0 mg/kg/injection, schedule: Q01DX001 (ip), vehicle: other 100 % of control | dose: 75.0 mg/kg/injection, schedule: Q01DX001 (ip), vehicle: other 96 % of control

Cc1cccc(C[P+](C/C=C/c2ccccc2)(c2ccccc2)c2ccccc2)c1
inactive: dose: 6.25 mg/kg/injection, schedule: Q04DX003 (ip), vehicle: Klucel (hydroxypropylcellulose) (HPC) 92 % of control | dose: 12.5 mg/kg/injection, schedule: Q04DX003 (ip), vehicle: Klucel (hydroxypropylcellulose) (HPC) 92 % of control

CC(=O)n1c(O)c(N=Nc2ccc([N+](=O)[O-])cc2[N+](=O)[O-])c2cc(Br)ccc21
inactive: dose: 100.0 mg/kg/injection, schedule: Q04DX002 (ip), vehicle: Klucel (hydroxypropylcellulose) (HPC) 92 % of control | dose: 200.0 mg/kg/injection, schedule: Q04DX002 (ip), vehicle: Klucel (hydroxypropylcellulose) (HPC) 92 % of control | dose: 400.0 mg/kg/injection, schedule: Q04DX002 (ip), vehicle: Klucel (hydroxypropylcellulose) (HPC) 92 % of control

CC(C)(C)C(=O)OCn1cnc2c(=N)n(O)cnc21
inactive: [3] 103 % of control | [4] 100 % of control | dose: 100.0 mg/kg/injection, schedule: Q04DX003 (ip), vehicle: Klucel (hydroxypropylcellulose) (HPC) 97 % of control | [5] 101 % of control | dose: 200.0 mg/kg/injection, schedule: Q04DX003 (ip), vehicle: Klucel (hydroxypropylcellulose) (HPC) 108 % of control

OCC(O)C(O)C(O)C1SCCS1 (stereo not drawn)
inactive: [6] 103 % of control | [7] 106 % of control | [8] 104 % of control

Cc1ncc(C(N)=O)c2c1OC(C)(C)OC2
inactive: dose: 50.0 mg/kg/injection, schedule: Q01DX001 (ip), vehicle: saline 100 % of control | [6] 97 % of control | [7] 94 % of control | [8] 88 % of control

O=[N+]([O-])c1ccc(N/N=C/CC(O)CO)c([N+](=O)[O-])c1 (stereo not drawn)
inactive: [9] 89 % of control | dose: 100.0 mg/kg/injection, schedule: Q04DX003 (ip), vehicle: saline 90 % of control | [10] 86 % of control | dose: 200.0 mg/kg/injection, schedule: Q04DX003 (ip), vehicle: saline 90 % of control | [11] 94 % of control | dose: 400.0 mg/kg/injection, schedule: Q04DX003 (ip), vehicle: saline 91 % of control

Cc1cc(N=Cc2cccc([N+](=O)[O-])c2O)c2ccccc2n1
inactive: dose: 100.0 mg/kg/injection, schedule: Q01DX001 (ip), vehicle: other 101 % of control

CCN(CC)Cc1cc(-n2cnc3c(Cl)ncnc32)ccc1O
inactive: dose: 6.25 mg/kg/injection, schedule: Q04DX003 (ip), vehicle: saline 101 % of control | dose: 12.5 mg/kg/injection, schedule: Q04DX003 (ip), vehicle: saline 103 % of control | dose: 25.0 mg/kg/injection, schedule: Q04DX003 (ip), vehicle: saline 96 % of control

O=C1NC(c2ccccc2)C(=O)NC1c1ccccc1 (stereo not drawn)
inactive: [12] 94 % of control | [1] 86 % of control | [2] 89 % of control

COc1ccc(NC(=O)Nc2nccs2)c(OC)c1
inactive: [9] 104 % of control | [10] 102 % of control | [11] 105 % of control

CSc1nc(C)c(Cl)c(SC)n1
inactive: [3] 101 % of control | [4] 117 % of control | [5] 97 % of control

CCN(CC)CCN(CC(=O)O)CC(=O)O
inactive: [6] 108 % of control and 98 % of control | [7] 90 % of control and 102 % of control | [8] 96 % of control and 102 % of control

CN(C)CCCNc1c2ccccc2nc2ccccc12
inactive: dose: 5.0 mg/kg/injection, schedule: Q01DX001 (ip), vehicle: saline 109 % of control | dose: 10.0 mg/kg/injection, schedule: Q01DX001 (ip), vehicle: saline 104 % of control | dose: 20.0 mg/kg/injection, schedule: Q01DX001 (ip), vehicle: saline 98 % of control | dose: 40.0 mg/kg/injection, schedule: Q01DX001 (ip), vehicle: saline 91 % of control

OCCC1CC1=C1CC1 (stereo not drawn)
inactive: [3] 101 % of control | [4] 98 % of control

COC(=O)c1ccc(OC(=O)Nc2ccc(C)cc2)cc1
inactive: [4] 101 % of control | [5] 100 % of control | [13] 101 % of control

CSc1ncc(C#N)c(N)n1
inactive: dose: 50.0 mg/kg/injection, schedule: Q01DX009 (ip), vehicle: saline with Tween-80 98 % of control | dose: 100.0 mg/kg/injection, schedule: Q01DX009 (ip), vehicle: saline with Tween-80 93 % of control | [12] 97 % of control | dose: 200.0 mg/kg/injection, schedule: Q01DX009 (ip), vehicle: saline with Tween-80 104 % of control | [1] 94 % of control

Cc1cc(C)cc(OC(=S)N(C)C)c1
inactive: dose: 100.0 mg/kg/injection, schedule: Q01DX001 (ip), vehicle: Klucel (hydroxypropylcellulose) (HPC) 93 % of control | dose: 200.0 mg/kg/injection, schedule: Q01DX001 (ip), vehicle: Klucel (hydroxypropylcellulose) (HPC) 98 % of control | dose: 400.0 mg/kg/injection, schedule: Q01DX001 (ip), vehicle: Klucel (hydroxypropylcellulose) (HPC) 95 % of control

COC(=O)C1Cc2c([nH]c3ccccc23)CN1 (stereo not drawn)
inactive: dose: 9.0 mg/kg/injection, schedule: Q01DX009 (ip), vehicle: saline 95 % of control | dose: 9.0 mg/kg/injection, schedule: Q04DX003 (ip), vehicle: saline 100 % of control | dose: 18.0 mg/kg/injection, schedule: Q01DX009 (ip), vehicle: saline 101 % of control | dose: 18.0 mg/kg/injection, schedule: Q04DX003 (ip), vehicle: saline 98 % of control | dose: 37.0 mg/kg/injection, schedule: Q01DX009 (ip), vehicle: saline 105 % of control | dose: 37.0 mg/kg/injection, schedule: Q04DX003 (ip), vehicle: saline 93 % of control

Cn1c(SCc2ccccc2)nccc1=O
inactive: [4] 96 % of control | [5] 104 % of control

CC(C)CC(NC(=O)C1(N)C2CC3CC(C2)CC1C3)C(=O)O (stereo not drawn)
inactive: dose: 22.5 mg/kg/injection, schedule: Q01DX009 (ip), vehicle: Klucel (hydroxypropylcellulose) (HPC) 100 % of control | dose: 45.0 mg/kg/injection, schedule: Q01DX009 (ip), vehicle: Klucel (hydroxypropylcellulose) (HPC) 103 % of control | dose: 90.0 mg/kg/injection, schedule: Q01DX009 (ip), vehicle: Klucel (hydroxypropylcellulose) (HPC) 97 % of control | [4] 108 % of control | [5] 107 % of control | [13] 100 % of control
